The values that follow come from patent US11046704B2, “Derivatives of porphyrins, their process of preparation and their use for treating viral infections” (INSTITUT NATIONAL DE LA SANTE ET DE LA RECHERCHE MEDICALE …, priority 2015, dated 2021).

The test system of this experiment is HIV-1. In words: Viral infectivity test on HeLa P4 cells. The class given is cell-based. The protocol: FIG. 2: Effects of G4 ligands compared with AZT on HIV-1 infectivity using the HeLa P4 cell system for studying the replication of HIV-1. The HeLa P4 cells contain a gene lacZ encoding beta-galactosidase under the control of the viral LTR and whose transcription is activated by the viral protein Tat. The cells are incubated with the ligand then infected with HIV-1. After 24 hours the activity of beta-galactosidase, which is proportional to the infectivity of the virus is then measured on a fluorescence plate reader.
C. Cell lines and viruses: HeLa P4 cells encoding a Tat-inducible β-galactosidase were maintained in DMEM medium (Invitrogen) supplemented with 10% inactivated FCS, 1 mg/ml geneticin (G418, Gibco-BRL), gentamycin. MT4 and H9LaI cells were grown in RPMI 1640 glutamax medium (Invitrogen) supplemented with 10% inactivated FCS. HIV-1 viruses were obtained after 48 h co-culture of MT4 cells (0.5×10^6/ml) and H9Laï cells (1×10^6/ml), chronically infected by HIV-1LaI isolate, in RPMI 1640 glutamax medium supplemented with 10% inactivated FCS, at 37° C. under humidified atmosphere and […]. […]
D. Viral infectivity test: The G4 ligands are incubated in presence of the HelaP4 cells 20 minutes before infection. […] After 24 h, the reaction was measured in a fluorescence microplate reader (Cytofluor II, Applied Biosystems) at 360/460 nm Ex/Em.

Regarding `Cc1cn([C@H]2C[C@H](N=[N+]=[N-])[C@@H](CO)O2)c(=O)[nH]c1=O` [AZT], the IC50 (commonly the concentration that inhibits the measured activity by half) (24 h of infection, beta-galactosidase readout) was 40 nM.

Regarding `C[n+]1ccc(-c2c3nc(c(-c4cc[n+](C)cc4)c4ccc([nH]4)c(-c4cc[n+](C)cc4)c4ccc([nH]4)c(-c4cc[n+](C)cc4)c4nc2C=C4)C=C3)cc1` [Tmpyp4], the “inhibition of viral replication” value is recorded as “weak inhibitors of viral replication”.
